Test results taken from patent EP4667486A1, “COMPOSITION COMPRISING CD38 OR FRAGMENT THEREOF FOR TREATING AUTOIMMUNE DISEASES” (DNT Co., Ltd., priority 2023, dated 2024).

Experiments:
DCs = assay: LPS-induced TNF-α secretion from bone marrow-derived dendritic cells (ELISA), sCD38 functional domain screening; type: cell-based, mouse; conditions: DCs from bone marrow cells treated with GM-CSF, FIG. 1-3
Protocol: To isolate bone marrow cells, mice (Damool Science, Korea) were anesthetized and sacrificed, and the femur and tibia were removed aseptically and the tissue attached to the bones was removed. After cutting off both ends of the bones, bone marrow was collected by slowly injecting 5-10 mL of a cell culture medium or a solution used for bone marrow separation into the medullary cavity at one end using a syringe needle, which was then filtered through a 70 µm cell strainer (SPL Life Sciences, Korea) and centrifuged to collect bone marrow cells. After treating with 1 mL of an RBC lysis solution (Merck, Germany) for 2-5 minutes to remove red blood cells, 10 mL of Dulbecco's phosphate-buffered saline (DPBS) (GIBCO, USA) was added, and bone marrow cells were collected through centrifugation. After washing the bone marrow cells 3 times with DPBS, 10 mL of a BMDC culture medium (RPMI-1640 (Welgene, Korea) containing 10% FBS (GIBCO, USA) and 10 ng/mL GM-CSF (Peprotech, USA)) was added to disperse the bone marrow cells into single cells. 1×10^5 bone marrow cells were dispensed into a 24-well culture dish and differentiated in a 37 °C incubator maintained at 5% CO2.
To screen the functional domain of sCD38 that induces dendritic cell tolerance, the domain of sCD38 was largely divided into three parts (CD38 amino acid sequence; 42-140 (1), 130-220 (2), 210-304 (3)). Using the three parts of sCD38, TNF-α secretion was observed as one of the indicators of the degree of DC tolerance induction.
An E. coli expression system was used to express the sCD38 domain protein. The sCD38 domain protein expressed in E. coli was purified using a purification system and used for screening. For fast and easy screening of the domain protein of sCD38, an ELISA method that measures the pro-inflammatory cytokine TNF-α was adopted. When the DCs obtained by treating the bone marrow cells with GM-CSF are treated with LPS, the DCs differentiate into mature DCs and the secretion of TNF-α is increased. It was confirmed that TNF-α secretion from DCs induced by LPS was reduced by the treatment with sCD38 (SEQ ID NO: 33). As a result of treating with sCD38 functional domain, (1) 42-140, (2) 130-220, and (3) 210-304, it was confirmed that the TNF-α secretion from dendritic cells induced by LPS (Merck, Germany) was reduced by the sCD38 functional domain (3).
After the first screening of the sCE38 functional domain that induces dendritic cell tolerance, the selected domain was divided into two parts (C-term 226-265 and C-term 266-304 of CD38 210-304 (3), (SEQ ID NO: 26)). After the domain was divided into two parts, TNF-α secretion was observed as one of the indicators of the degree of DC tolerance induction.
An E. coli expression system was used to express the divided two parts of sCD38. As a result of treating with the divided two parts (C-term 226-265, C-term 266-304) of the sCD38 functional domain (3), it was confirmed that the TNF-α secretion from dendritic cells induced by LPS was reduced by the sCD38 functional domain C-term 266-304.
After the second screening of the sCE38 functional domains that induce dendritic cell tolerance, the screened domain was divided into seven parts and peptide synthesis was performed (peptide 1: 233-247 of sCD38 226-304, peptide 2: 251-265, peptide 3: 269-283, peptide 4: 266-304 (SEQ ID NO: 26), peptide 5 (M19): 286-304 (SEQ ID NO: 21), peptide 6 (M16): 287-302 (SEQ ID NO: 11), peptide 7 (M14): 287-300 (SEQ ID NO: 4)). […]

[1] = system: autoimmune uveitis animal model; assay: Animal model of autoimmune uveitis (IRBP/PTX-induced), severity; type: in vivo, C57BL/6 mice; conditions: injected into the eye twice a week, versus uninjected uveitis control; FIG. 4
Protocol: Autoimmune uveitis was induced by […] retinoid-binding protein (IRBP) (Peptron, Korea) into the hind limb muscles of C57BL/6 mice (Damool Science, Korea) and intraperitoneal injection of pertussis toxin (PTX) (List Lab, USA). After 10 to 14 days, the presence or absence of autoimmune uveitis was confirmed in the eyes of the mice. The functional domain of sCD38 (226-304) was injected into the eye of the animal model that developed autoimmune uveitis twice a week to determine the progression of autoimmune uveitis. An autoimmune uveitis animal model to which the functional domain of sCD38 (226-304) was not injected was used as a control group, and animals to which the functional domain of sCD38 (226-304) was injected were used as a test group. The severity of autoimmune uveitis was measured for the experimental animals.

[2] = system: animal model of rheumatoid arthritis; assay: Collagen-induced arthritis (CIA) animal model of rheumatoid arthritis, hind ankle thickness; type: in vivo, DBA/1 mice; conditions: summary statement referring to Example 8
Protocol: For induction of collagen-induced arthritis (CIA), 8-9 week-old male DBA/1 mice (Central Lab. Animal, Korea) were immunized with bovine type II collagen (CII) (Central Lab. Animal, Korea). CII was dissolved in 0.05 N acetic acid at a concentration of 2 mg/mL and emulsified at a ratio of 1:1 with complete Freund's adjuvant (CFA) (Central Lab. Animal, Korea) at 4 °C. For the first immunization, 150 µL of a mixture of 100 µg CII and 100 µg CFA was injected intradermally into the tail of the mice. Three weeks later, before booster injection, the sCD38 functional domain (sCD38-3) (226-304) or saline was injected into the ankle joint of the mice, and an equal volume of CII, emulsified at a ratio of 1:1 with incomplete Freund's adjuvant (IFA) (Merck, Germany), was injected into the tail (booster injection). The sCD38 functional domain (sCD38-3) was injected three more times, once a week. After 4 weeks of the booster injection, the mice were euthanized for analysis. After the booster injection, the thickness of the hind ankle of the animal model was measured using a vernier caliper.

human dendritic cells = assay: LPS-induced TNF-α secretion from human monocyte-derived dendritic cells; type: cell-based; conditions: FIG. 9
Protocol: To isolate human monocytes, 20 mL of whole blood was withdrawn and mix with an equal volume of PBS. After adding 15 mL of Ficoll (GE HealthCare, USA) to a 50-mL tube, 15 mL of diluted whole blood was slowly added onto the Ficoll. Likewise, an equal amount of the remaining whole blood was dispensed slowly into a 50-mL tube containing 15 mL of Ficoll. Centrifugation was performed at 1000 x g for 20 minutes in a centrifuge at room temperature. After carefully removing plasma from the isolated whole blood, a portion including peripheral blood mononuclear cells (PBMCs) was transferred to a new 50-mL tube. After adding 10 mL of PBS to the tube containing PBMCs and mixing gently, centrifugation was performed at 400 x g for 10 minutes at room temperature. After carefully removing the supernatant, 1 mL of an RPMI 1640 medium containing 10% FBS was added to the PBMC pellets, and the cells were counted. After adding an RPMI-1640 medium (Welgene, Korea) containing 10% FBS to 1x10^6 cells per mL, 100 ng/mL GM-CSF (Peprotech, USA) and 50 ng/mL IL-4 (Peprotech, USA) were mixed. After adding 500 µL of PMBC to each well of a 24-well plate, the cells were differentiated in an incubator at 37 °C maintained at 5% CO2 for 5 days.
It was confirmed whether the sCD38 functional domain that induces tolerance of dendritic cells is also effective in human dendritic cells. To identify the functional domain of human sCD38, the C-terminal portion of human CD38 (H18 (283-300), H13 (284-296) (SEQ ID NO: 2)) were prepared into peptides. Human sCD38 and M19 peptides were treated as positive controls, and TNF-α secretion was observed using H18 and H13 peptides as one of the indicators of the degree of DC tolerance induction.
It was confirmed that the TNF-α secretion induced by LPS from human dendritic cells was reduced by the sCD38 functional domain peptides when the human sCD38 and M19 peptides were treated as positive controls and they were treated with the H18 and H13 peptides.

[3] = system: ulcerative colitis animal model; assay: DSS-induced animal model of ulcerative colitis, colon length; type: in vivo, C57BL/6 mice; conditions: for colon length: 20 µg intrarectally daily for 2 weeks, DSS 6-7 days, FIG. 8
Protocol: A control ulcerative colitis animal model was established by allowing C57BL/6 mice (Damool Science, Korea) to drink drinking water containing 2-3% dextran sulfate sodium (DSS) (MP Biomedicals, China) for 6-7 days. Administration of DSS increases the level of inflammatory cytokines and causes colitis in mice. The experimental animal model was treated with DSS for 6-7 days, and 20 µg of the sCD38 functional domain (M19 peptide (Peptron, Korea)) was injected intrarectally daily for 2 weeks. Then, it was determined whether the progression of ulcerative colitis was reduced. LiCl (Merck, Germany) was used instead of the sCD38 functional domain (M19 peptide) for a positive control group.
In contrast, it was confirmed that the colon length of the experimental animal model treated with the sCD38 functional domain (M19 peptide) was not shortened.

Sequence | TNF-α secretion from dendritic cells induced by LPS (DCs) | TNF-α secretion induced by LPS from human dendritic cells (human dendritic cells) | other results
RFLQCVKNPEHPSCRL (REGION 1..16: note = 16 mer (Mouse)) [M16, synthesized peptide 287-302 of mouse sCD38] | reduces |  | 
LKMIVQKRNMIFACVDNYRPARFLQCVKNPEHPSCRLNT (REGION 1..39: note = 39 mer (Mouse)) [peptide 4, synthesized peptide 266-304 of mouse sCD38] | reduced |  | progression of autoimmune uveitis [1]: reduces; rheumatoid arthritis [2]: reduces
FLQCVKNPEDSSC (REGION 1..13: note = 13 mer (Human or Chimpaanze)) [H13, peptide 284-296 of human CD38] |  | reduces | 
RFLQCVKNPEHPSC (REGION 1..14: note = 14 mer (Mouse, Rat or Horse)) [M14, synthesized peptide 287-300 of mouse sCD38] | reduces |  | 
ARFLQCVKNPEHPSCRLNT (REGION 1..19: note = 19 mer (Mouse)) [M19, synthesized peptide 286-304 of mouse sCD38] | reduced | reduced | colon length [3]: prevents shortening of the colon; colon length ([3]; listed as M19 peptide): not shortened; progression of ulcerative colitis ([3]; summary statement referring to Example 9): reduces
KFLQCVKNPEDSSCTSEI (REGION 1..18: note = 18 mer (Human or Chimpaanze)) [H18, domain peptide 283-300 of human CD38] | reduced | reduces | 
